Laboratory results from patent US20220281821A1, “INDAZOLE COMPOUNDS AND THEIR PHARMACEUTICAL COMPOSITIONS” (Jinan University, priority 2019, published 2022).

How the values were obtained:
Type in all cases: cell-based, mouse
BaF3-ETV6-NTRK2 = biological target: T1, BaF3-ETV6-NTRK2 (Homo sapiens, UniProt Q16620); test: Cell proliferation inhibition (CCK-8), BaF3-ETV6-NTRK2 stable strain; conditions: BaF3-ETV6-NTRK2, 72 hours
T1 construct: fused on or other part: P41212 (Transcription factor ETV6)
T1 sequence (Q16620 538-822 limits assumed): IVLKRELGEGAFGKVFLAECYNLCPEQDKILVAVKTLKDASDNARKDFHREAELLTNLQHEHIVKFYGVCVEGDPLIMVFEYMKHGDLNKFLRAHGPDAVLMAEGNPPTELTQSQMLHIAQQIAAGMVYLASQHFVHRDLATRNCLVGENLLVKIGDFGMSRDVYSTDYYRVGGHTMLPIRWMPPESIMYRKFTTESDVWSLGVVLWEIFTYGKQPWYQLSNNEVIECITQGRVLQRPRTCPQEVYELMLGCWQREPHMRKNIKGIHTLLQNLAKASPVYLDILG
Procedure: (§1) The brief steps of stable strain construction are as follows: construct a pCDNA3.1(+) plasmid vector carrying genes such as CD74-NTRK1, ETV6-NTRK2 and ETV6-NTRK3; the plasmid was electroporated into Ba/F3 cells using the Amaxa® Cell Line Nucleofector® Kit V; 48 hours after electroporated, G418 with a final concentration of 1000 μg/ml was added for screening for two weeks, and then IL3 was removed, and continued screening to obtain polyclonal stable strains; then single clones were selected by a limiting dilution method. The stable strains were then identified using positive drugs, WB and gene sequencing; and the monoclonal clones that were identified as completely correct may be used for the study of cell proliferation inhibitory activity of inhibitors.
(§2) Cell proliferation inhibition activity study: the cells in the logarithmic growth phase were seeded into 96-well plates at 8000-12000 cells/well, and inhibitors at different concentrations (0-10 μM) were added the next day, and incubation was continued for 72 hours; then 10 μL of CCK-8 reagent was added to each well, and the incubation was continued for 1-3 hours; and then use a super microplate reader to measure their absorbance values at 450 nm and 650 nm. The half-inhibition concentration (IC50) was calculated using GraphPad Prism 8.0.0.

BaF3-CD74-NTRK1 = biological target: T2, BaF3-CD74-NTRK1 (Homo sapiens, UniProt P04629); test: Cell proliferation inhibition (CCK-8), BaF3-CD74-NTRK1 stable strain; conditions: BaF3-CD74-NTRK1, 72 hours
T2 construct: fused on or other part: P04233 (HLA class II histocompatibility antigen gamma chain)
T2 sequence (P04629 510-796 limits assumed): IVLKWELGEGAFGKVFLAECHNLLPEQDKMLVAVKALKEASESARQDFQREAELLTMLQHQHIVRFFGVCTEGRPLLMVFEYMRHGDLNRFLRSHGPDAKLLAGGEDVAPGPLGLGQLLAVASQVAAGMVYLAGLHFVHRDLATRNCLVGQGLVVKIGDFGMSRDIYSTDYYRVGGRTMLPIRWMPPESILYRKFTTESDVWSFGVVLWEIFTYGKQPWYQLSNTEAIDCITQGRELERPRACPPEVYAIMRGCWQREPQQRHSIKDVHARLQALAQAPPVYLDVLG
Procedure: as §1, §2

BaF3-ETV6-NTRK3 = biological target: T3, BaF3-ETV6-NTRK3 (Homo sapiens, UniProt Q16288); test: Cell proliferation inhibition (CCK-8), BaF3-ETV6-NTRK3 stable strain; conditions: BaF3-ETV6-NTRK3, 72 hours
T3 construct: fused on or other part: P41212 (Transcription factor ETV6)
T3 sequence (Q16288 whole entry, the tested form may be a part): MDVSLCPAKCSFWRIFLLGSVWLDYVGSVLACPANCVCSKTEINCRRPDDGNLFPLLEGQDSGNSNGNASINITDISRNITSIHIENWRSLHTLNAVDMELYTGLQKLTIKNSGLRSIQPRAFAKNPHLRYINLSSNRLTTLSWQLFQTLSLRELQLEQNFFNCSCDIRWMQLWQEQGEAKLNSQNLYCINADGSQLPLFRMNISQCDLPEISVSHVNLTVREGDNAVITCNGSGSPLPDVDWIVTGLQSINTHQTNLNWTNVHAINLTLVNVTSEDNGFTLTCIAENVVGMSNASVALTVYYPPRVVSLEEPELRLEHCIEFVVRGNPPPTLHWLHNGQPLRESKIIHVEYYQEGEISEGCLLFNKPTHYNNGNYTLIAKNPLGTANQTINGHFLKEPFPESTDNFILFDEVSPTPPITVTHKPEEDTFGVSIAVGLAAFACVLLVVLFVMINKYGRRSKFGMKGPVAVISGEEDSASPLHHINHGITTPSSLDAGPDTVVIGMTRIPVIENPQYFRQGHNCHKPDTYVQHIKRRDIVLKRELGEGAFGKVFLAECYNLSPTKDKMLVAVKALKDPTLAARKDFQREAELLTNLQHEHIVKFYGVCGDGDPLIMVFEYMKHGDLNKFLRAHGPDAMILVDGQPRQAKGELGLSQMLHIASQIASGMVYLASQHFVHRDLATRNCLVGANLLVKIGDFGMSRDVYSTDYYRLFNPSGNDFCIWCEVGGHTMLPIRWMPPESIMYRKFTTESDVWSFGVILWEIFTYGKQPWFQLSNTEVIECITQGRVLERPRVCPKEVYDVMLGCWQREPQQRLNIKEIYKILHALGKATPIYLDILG
Procedure: as §1, §2

| Compound | IC50 (BaF3-ETV6-NTRK2) [nM] | IC50 (BaF3-CD74-NTRK1) [nM] | IC50 (BaF3-ETV6-NTRK3) [nM] |
| --- | --- | --- | --- |
| Clc1cc(Cl)cc(Cc2ccc3[nH]nc(/C=C/c4ccccn4)c3c2)c1 [Example D06F01, (E)-5-(3,5-dichlorobenzyl)-3-(2-(pyridin-2-yl)vinyl)-1H-indazole] | > 10000 | 564 | 851 |
| O=S(=O)(Nc1ccc2[nH]nc(/C=C/c3cn[nH]c3)c2c1)c1cc(F)cc(F)c1 [Example D5220, (E)-3,5-difluoro-N-(3-(2-(1H-pyrazol-4-yl)vinyl)-1H-indazol-5-yl)benzenesulfonamide] | 215 | 120 | 175 |
| N#CCn1cc(/C=C/c2n[nH]c3ccc(NS(=O)(=O)c4cc(F)cc(F)c4)cc23)cn1 [CHW-1, (E)-N-(3-(2-(1-(cyanomethyl)-1H-pyrazol-4-yl)vinyl)-1H-indazol-5-yl)-3,5-difluorobenzene sulfonamide] | 43.1 | 35.5 | 39.2 |
| O=S(=O)(Nc1ccc2[nH]nc(/C=C/c3ccccn3)c2c1)c1cccc(F)c1 [CHW-5, (E)-3-fluoro-N-(3-(2-(pyridin-2-yl)vinyl)-1H-indazol-5-yl)benzene sulfonamide] | 70.1 | 27.3 | 59.5 |
| CNC(=O)Cn1cc(/C=C/c2n[nH]c3ccc(NS(=O)(=O)c4cc(F)cc(F)c4)cc23)cn1 [CHW-14, (E)-2-(4-(2-(5-((3,5-difluorophenyl)sulfonamido)-1H-indazol-3-yl)vinyl)-1H-pyrazol-1-yl)-N-methylacetamide] | 427 | 331 | 350 |
| O=S(=O)(Nc1ccc2[nH]nc(/C=C/c3cnn(CC(F)(F)F)c3)c2c1)c1cc(F)cc(F)c1 [CHW-3] | 165 | 92 | 123 |
| O=S(=O)(Nc1ccc2[nH]nc(/C=C/c3cnn(C(F)F)c3)c2c1)c1cc(F)cc(F)c1 [CHW-11] | 103 | 53.8 | 111 |
| O=S(=O)(Nc1ccc2[nH]nc(/C=C/c3cccnc3)c2c1)c1cc(F)cc(F)c1 [CHW-8, (E)-3,5-difluoro-N-(3-(2-(pyridin-3-yl)vinyl)-1H-indazol-5-yl)benzenesulfonamide] | 248 | 143 | 174 |
| O=S(=O)(c1cc(F)cc(F)c1)c1ccc2[nH]nc(/C=C/c3ccccc3F)c2c1 [Example E01F10, (E)-5-((3,5-difluorophenyl)sulfonyl)-3-(2-fluorostyryl)-1H-indazole] | 610 | 68.9 | 156 |
| CC(=O)n1cc(/C=C/c2n[nH]c3ccc(NS(=O)(=O)c4cc(F)cc(F)c4)cc23)cn1 [CHW-2, (E)-N-(3-(2-(1-acetyl-1H-pyrazol-4-yl)vinyl)-1H-indazol-5-yl)-3,5-difluorobenzenesulfonamide] | 185 | 107 | 127 |
| Cn1cc(/C=C/c2n[nH]c3ccc(NS(=O)(=O)c4cc(F)cc(F)c4)cc23)cn1 [Example D5217, (E)-3,5-difluoro-N-(3-(2-(1-methyl-1H-pyrazol-4-yl)vinyl)-1H-indazol-5-yl)benzenesulfonamide] | 171 | 90.9 | 125 |

Other lines, results leading:

| IC50 (BaF3-ETV6-NTRK2) [nM] | IC50 (BaF3-CD74-NTRK1) [nM] | IC50 (BaF3-ETV6-NTRK3) [nM] | Compound |
| --- | --- | --- | --- |
| 88.7 | 21 | 34.3 | Fc1ccc(Cl)c(CNc2ccc3[nH]nc(/C=C/c4ccccn4)c3c2)c1 [DYX-416, (E)-N-(2-chloro-5-fluorobenzyl)-3-(2-(pyridin-2-yl)vinyl)-1H-indazol-5-amine] |
| 56 | 37.5 | 33.2 | O=C(/C=C/c1n[nH]c2ccc(NCc3cc(F)cc(F)c3)cc12)N1CC[C@@H](O)C1 [DYX-227, (R,E)-3-(5-((3,5-difluorobenzyl)amino)-1H-indazol-3-yl)-1-(3-hydroxylpyrrolidin-1-yl)prop-2-en-1-one] |
| 48.1 | 48.7 | 34.4 | CN1CCN(C(=O)/C=C/c2n[nH]c3ccc(NCc4cc(F)cc(F)c4)cc23)CC1 [DYX-226, (E)-3-(5-((3,5-difluorobenzyl)amino)-1H-indazol-3-yl)-1-(4-methylpiperazin-1-yl)prop-2-en-1-one] |
| 11.7 | 10.3 | 3.5 | C[C@@H](Nc1ccc2[nH]nc(/C=C/c3ccncc3)c2c1)c1cc(F)cc(F)c1 [DYX-410, (R,E)-N-(1-(3,5-difluorophenyl)ethyl)-3-(2-(pyridin-4-yl)vinyl)-1H-indazol-5-amine] |
| 53.5 | 28.2 | 22.6 | N#Cc1cc(F)cc(CNc2ccc3[nH]nc(/C=C/c4ccccn4)c3c2)c1 [DYX-402, (E)-3-fluoro-5-(((3-(2-(pyridin-2-yl)vinyl)-1H-indazol-5-yl)amino)methyl)benzonitrile] |
| 448 | 113 | 112 | Cc1cc(F)cc(CNc2ccc3[nH]nc(/C=C/c4ccccn4)c3c2)c1 [DYX-401, (E)-N-(3-fluoro-5-methylbenzyl)-3-(2-(pyridin-2-yl)vinyl)-1H-indazol-5-amine] |
| 2520 | 196 | 1180 | Fc1cc(CNc2ccc3[nH]nc(/C=C/c4ccccn4)c3c2)cc(C(F)(F)F)c1 [DYX-414, (E)-N-(3-fluoro-5-(trifluoromethyl)benzyl)-3-(2-(pyridin-2-yl)vinyl)-1H-indazol-5-amine] |
| 510 | 50.8 | 156 | Fc1cc(Br)cc(CNc2ccc3[nH]nc(/C=C/c4ccccn4)c3c2)c1 [DYX-415, (E)-N-(3-bromo-5-fluorobenzyl)-3-(2-(pyridin-2-yl)vinyl)-1H-indazol-5-amine] |
| 137 | 52.6 | 180 | COc1cc(F)cc(CNc2ccc3[nH]nc(/C=C/c4ccccn4)c3c2)c1 [DYX-403, (E)-N-(3-fluoro-5-methoxybenzyl)-3-(2-(pyridin-2-yl)vinyl)-1H-indazol-5-amine] |
| 115 | 110 | 35.6 | C[C@@H](Nc1ccc2[nH]nc(/C=C/c3ccccc3)c2c1)c1cc(F)cc(F)c1 [DYX-412, (R,E)-N-(1-(3,5-difluorophenyl)ethyl)-3-styryl-1H-indazol-5-amine] |
| 31.7 | 21.2 | 22.6 | CN(C)C(=O)/C=C/c1n[nH]c2ccc(NCc3cc(F)cc(F)c3)cc12 [DYX-220, (E)-3-(5-((3,5-difluorobenzyl)amino)-1H-indazol-3-yl)-N,N-dimethylacrylamide] |
| 10.7 | 0.6 | 3.3 | C[C@@H](Nc1ccc2[nH]nc(/C=C/c3cnn(CCO)c3)c2c1)c1cccc(F)c1 [DYX-335, (R,E)-2-(4-(2-(5-((1-(3-fluorophenyl)ethyl)amino)-1H-indazol-3-yl)vinyl)-1H-pyrazol-1-yl)-1-ethanol] |
| 17.6 | 1.4 | 5.4 | C[C@@H](Nc1ccc2[nH]nc(/C=C/c3cnn(CCO)c3)c2c1)c1cc(F)cc(F)c1 [DYX-327, (R,E)-2-(4-(2-(5-((1-(3,5-difluorophenyl)ethyl)amino)-1H-indazol-3-yl)vinyl)-1H-pyrazol-1-yl)-1-ethanol] |
| 160 | 18.7 | 68 | C[C@@H](Nc1cc2c(/C=C/c3ccccn3)n[nH]c2cn1)c1cc(F)cc(F)c1 [DYX-340, (R,E)-N-(1-(3,5-difluorophenyl)ethyl)-3-(2-(pyridin-2-yl)vinyl)-1H-pyrazolo[3,4-c]pyridin-5-amine] |
| 36.9 | 6.4 | 7.7 | C[C@@H](Nc1ccc2[nH]nc(/C=C/c3cccnc3)c2c1)c1cc(F)cc(F)c1 [DYX-409, (R,E)-N-(1-(3,5-difluorophenyl)ethyl)-3-(2-(pyridin-3-yl)vinyl)-1H-indazol-5-amine] |
| 10.7 | 7.4 | 4.3 | CCn1cc(/C=C/c2n[nH]c3ccc(N[C@H](C)c4cc(F)cc(F)c4)cc23)cn1 [DYX-349, (R,E)-N-(1-(3,5-difluorophenyl)ethyl)-3-(2-(1-ethyl-1H-pyrazol-4-yl)vinyl)-1H-indazol-5-amine] |
| 303 | 682 | 359 | CC(C)(C)NC(=O)/C=C/c1n[nH]c2ccc(NCc3cc(F)cc(F)c3)cc12 [DYX-230, (E)-N-tert-butyl-3-(5-((3,5-difluorobenzyl)amino)-1H-indazol-3-yl)acrylamide] |
| 9.5 | 6.5 | 3.1 | C[C@@H](Nc1ccc2[nH]nc(/C=C/c3cnn(C)c3)c2c1)c1cc(F)cc(F)c1 [DYX-346, (R,E)-N-(1-(3,5-difluorophenyl)ethyl)-3-(2-(1-methyl-1H-pyrazol-4-yl)vinyl)-1H-indazol-5-amine] |
| 116 | 112 | 196 | CCNC(=O)/C=C/c1n[nH]c2ccc(NCc3cc(F)cc(F)c3)cc12 [DYX-236, (E)-3-(5-((3,5-difluorobenzyl)amino)-1H-indazol-3-yl)-N-ethylacrylamide] |
| 165 | 154 | 149 | C(=C\c1n[nH]c2ccc(NCc3ccccc3)cc12)/c1ccccn1 [DYX-314, (E)-N-benzyl-3-(2-(pyridin-2-yl)vinyl)-1H-indazol-5-amine] |
